Data on 3 compounds can be found in US20260125679A1, “FINE-TUNING INFLAMMATION BY ALTERING 3'UTR LENGTH” (priority 2023, published 2026).

The subject of one assay is neurons and hESCs. The experiment in a line: Specificity of RNA polymerase inhibitors (mRNA and mtRNA levels). The assay is classed as cell-based, human. To be noted: 12 hours treatment. The method, then:
(§1) We transiently treated neurons with different RNA polymerase inhibitors for 12 hours prior to J2 staining to determine if RNA polymerase II (POLII) or mitochondrial RNA polymerase (POLRMT) give rise to neuronal dsRNA. The following inhibitors were used: actinomycin D (ActD), which inhibits both POLII and POLRMT (16); α-amanitin, a POLII inhibitor; and IMT1, a POLRMT-specific inhibitor (25). […] By quantifying depletion of dsRNA upon single treatments with α-amanitin or IMT1 treatment, we calculated the proportional contribution of POLII- or POLRMT-derived dsRNAs, respectively. We applied this analysis to various cell types. In HeLa cells, roughly 90% of dsRNA was derived from POLRMT. This is consistent with a prior study that concluded that roughly 95% of dsRNA in HeLa cells is located in mitochondria (16), validating our analysis. In both hESCs and HEK-293T cells, POLRMT and POLII contribute to roughly 70% and 30% of dsRNA, respectively. Conversely, in neurons, POLRMT and POLII transcripts contribute to 40% and 60% of dsRNA, respectively. […] In summary, mtRNA is the major component of dsRNA in HeLa, HEK-293T, and hESCs. However, in neurons, POLII-derived transcripts, presumably mRNAs, contribute to the bulk of the neuronal dsRNA load.
(§2) For treatment with various polymerase inhibitors, cells were treated for 12 hours prior to harvest with either ActD (10 ug/mL, Sigma), α-amanitin (25 ug/mL, Sigma), or IMT1 (1 uM, MedChemExpress).
RNA was extracted directly from cell samples using the Direct-zol RNA Miniprep kit (Zymo Research). cDNA conversion was completed using the ProtoScript II First Strand cDNA Synthesis kit (New England Biolabs). PowerUp SYBR Green (Thermo Fisher Scientific) and QuantStudio 3 Real-Time PCR System were used for qRT-PCR, and all primers are listed in Table S1. RPS11 or 18S rRNA were used as a housekeeping gene for normalization.

Assay [1] relates to dsRNA in neurons, hESCs, HEK-293T and HeLa cells. The experiment in a line: J2 staining of dsRNA after RNA polymerase inhibitor treatment. It counts as cell-based, human. The method, then:
as §1, §2
Cells grown on glass coverslips were washed with PBS and fixed using 4% paraformaldehyde for 20 minutes at 4° C. Samples were then blocked and permeabilized in PBTG (PBS, 1% BSA, 0.1% Triton-X100, 10% goat serum) for 1 hour at room temperature. Primary antibodies were diluted in PBTG and stained overnight at 4° C. Secondary antibodies (either goat anti-mouse IgG Alexa Fluor 488 or goat anti-rabbit IgG Alexa Fluor 594, Invitrogen (A11001 and A11012)) and DAPI were diluted in PBTG and stained for 1 hour at room temperature prior to mounting. Samples were imaged on an LSM-710 confocal microscope.
Images were processed and analyzed using ImageJ. MFI of individual cells was determined by tracing cell outlines. MFI data depicts 12 individual cells taken from at least 3 independent images. For colocalization analysis, the JACop plugin was used to measure MFI of 4 independent images.

Numbered stars: 1 amine (or outer) side, 2 acyl side, 3 side chain; on linkers, the order of the positions; unused ones are H or OH. Bridge positions count the residues as written; N and C are the ends. Square brackets hold non-standard residues; d marks the D form. Peptide text beside a SMILES is read from it. I, II: the chains in the order shown. Actinocin(9to1) = Cc1c2oc3c(C)ccc(C(=O)[*:1])c3nc-2c(C(=O)[*:2])c(N)c1=O; NMeV = CN[C@H](C(=O)O)C(C)C; Sar = CNCC(=O)O

In the case of `CC[C@H](C)[C@@H]1NC(=O)CNC(=O)[C@@H]2Cc3c([nH]c4cc(O)ccc34)[S+]([O-])C[C@@H](NC(=O)CNC1=O)C(=O)N[C@@H](CC(N)=O)C(=O)N1C[C@H](O)C[C@H]1C(=O)N[C@@H]([C@@H](C)[C@@H](O)CO)C(=O)N2` (stereo in doubt) [α-amanitin], the mRNA levels entry with neurons and hESCs was “down-regulated”. For the same compound, the “proportion of dsRNA derived from POLII (depletion of dsRNA upon α-amanitin)” value in assay [1] (hESCs and HEK-293T cells) is roughly 30%; in assay [1] (neurons), 60%.
As for `Cc1c2oc3c(C)ccc(C(=O)N[C@@H]4C(=O)N[C@H](C(C)C)C(=O)N5CCC[C@H]5C(=O)N(C)CC(=O)N(C)[C@@H](C(C)C)C(=O)O[C@@H]4C)c3nc-2c(C(=O)N[C@@H]2C(=O)N[C@H](C(C)C)C(=O)N3CCC[C@H]3C(=O)N(C)CC(=O)N(C)[C@@H](C(C)C)C(=O)O[C@@H]2C)c(N)c1=O` [ActD, actinomycin D] (I: T[dV]P[Sar][NMeV] / II: T[dV]P[Sar][NMeV]; ester I:1-I:C, II:1-II:C; linker I:N-II:N via Actinocin(9to1)), in the assay with neurons and hESCs, the mRNA levels entry is listed as “down-regulated” and the mtRNA levels result is listed as “down-regulated”. For the same compound, the “dsRNA signal (J2)” value in assay [1] (neurons and hESCs, 12 hours treatment) is given as “abrogate almost all dsRNA signal”.
Take `Cc1ccccc1-c1cc(=O)oc2cc(OC(C)C(=O)N(C)C)ccc12` (stereo not shown) [IMT1]: in the assay on neurons and hESCs, the mtRNA levels result is “down-regulated”. Moreover, the “proportion of dsRNA derived from POLRMT (depletion of dsRNA upon IMT1)” value in assay [1] (HeLa cells) is “roughly 90%”; in assay [1] (hESCs and HEK-293T cells), “roughly 70%”; in assay [1] (neurons) it was 40%.
